Measurements reported in patent US7790737B2, “Substituted pyrimidine compounds and their utility as CETP inhibitors” (Kowa Company, Ltd., priority 2007, dated 2010).

Tests used:
CETP [1] = molecular target: T1, CETP (Homo sapiens, UniProt P11597); assay: Measurement of CETP inhibitory action in human plasma (Roar Biomedical CETP Activity kit, fluorescence); type: biochemical; conditions: human plasma incubated with compound at 37° C. for 4 hours; calculated from CETP inhibitory rate at two or more concentrations; read-out: IC50 (concentration inhibiting the CETP activity by 50%)
T1 construct: from tissue; host or cells: human plasma
T1 sequence (P11597 18-493): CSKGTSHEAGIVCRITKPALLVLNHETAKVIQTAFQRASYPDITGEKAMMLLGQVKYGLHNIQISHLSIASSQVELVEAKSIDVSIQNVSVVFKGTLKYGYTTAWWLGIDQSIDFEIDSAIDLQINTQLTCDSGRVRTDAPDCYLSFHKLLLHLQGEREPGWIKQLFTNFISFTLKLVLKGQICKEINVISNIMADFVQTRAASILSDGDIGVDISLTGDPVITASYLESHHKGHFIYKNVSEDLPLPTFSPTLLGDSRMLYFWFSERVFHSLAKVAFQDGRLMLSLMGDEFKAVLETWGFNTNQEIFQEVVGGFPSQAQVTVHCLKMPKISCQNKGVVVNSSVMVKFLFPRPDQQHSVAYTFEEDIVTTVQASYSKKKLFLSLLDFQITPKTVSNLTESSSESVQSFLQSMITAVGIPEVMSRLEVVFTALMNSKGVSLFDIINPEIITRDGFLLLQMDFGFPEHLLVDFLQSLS
Experimental: A solution obtained by dissolving an exemplary compound or a comparative compound in polyethylene glycol/N-methyl-2-pyrrolidone (vol/vol=1/1) was added to human plasma, and the mixture was incubated in an incubator at 37° C. for 4 hours. The CETP activity in this plasma was measured with Cholesteryl Ester Transfer Protein Activity kit (Roar Biomedical, catalog No.: RB-CETP). Specifically, to each well of a 96-well plate, 95 μL of a buffer (10 mM Tris, 150 mM NaCl, 2 mM EDTA, pH 7.4), 2 μL of Donor particle and 2 μL of Acceptor particle were added, 1 μL of the human plasma after the incubation was added to the mixture, and the mixture was incubated in an incubator at 37° C. for 2 hours. After completion of the incubation, fluorescence intensity (FLU) was measured with a fluorescence plate reader (excitation wavelength: 465 nm, emission wavelength: 535 nm). In accordance with the following equation 1, the CETP activity (% of control) was obtained for the compounds of the examples and the comparative compounds for two or more concentrations. CETP activity (% of control)=(Sample FLU−Blank FLU)×100/(Control FLU−Blank FLU) (Equation 1) In the equation, the terms have the following meanings: Blank FLU: Fluorescence intensity of sample not added with plasma Control FLU: Fluorescence intensity of plasma not added with solution of compound Sample FLU: Fluorescence intensity of plasma added with solution of compound
A value obtained by subtracting the value of the CETP activity from 100 was defined as the CETP inhibitory rate of each exemplary compound, and a concentration inhibiting the CETP activity by 50% (IC50) was calculated for each exemplary compound from the values of the CETP inhibitory rate at two or more concentrations. As the comparative compound, the following compound was used, which is the pyrimidine compound having a benzyl(heterocyclylmethyl)amine structure described in Example 66 of Patent document 10 (International Patent Publication WO2006/073973).

CETP [2] = assay: Measurement of CETP inhibitory activity in blood of hamster (single oral administration); type: in vivo; conditions: hamster plasma, single oral dose 30 mg/kg in olive oil, blood collected 2 hours after administration, n=3; control 33.7 ± 2.3
Experimental: 1: Labeling of Donor Lipoprotein (HDL3 Fraction) with ^3H-Cholesterol and Preparation of Acceptor Lipoprotein (LDL Fraction)
The donor lipoprotein was prepared by adding KBr to plasma of healthy human subject (50 mL) to adjust the specific gravity (d) of the plasma to be 1.125, centrifuging the mixture at 100,000 rpm and 4° C. for 2.5 hours (Optima Max-E TLA-100.2 rotor, Beckman), and collecting the lower layer (HDL3 fraction, d>1.125). The resulting fraction was dialyzed against PBS (10 mM Na2HPO4, 10 mM NaH2PO4, 0.15 M NaCl, 1 mM EDTA-2Na, pH 7.4). Then, a 95% ethanol solution of 9.25 MBq 1, 2-3H(N)cholesterol (NEN™, Life Science Products, USA) was added to the sample with stirring, and the mixture was incubated at 37° C. for 18 hours. […]
To 10 μL of the hamster plasma, 5 μL of ^3H-labeled HDL3 and […] of LDL were added, and the final volume of the mixture was made 600 μL with a TBS solution (10 mM Tris, 0.15 M NaCl, pH 7.4). […] Then, radioactivity of 3H was measured with a liquid scintillation counter (TRI-CARB 2700 TR, Packard). […] CETP activity (%)=(Blank dpm−Sample dpm)×100/(Blank dpm) (Equation 2) In the equation, the terms have the following meanings: Blank dpm: Value of 3H radioactivity of sample not added with plasma Sample dpm: Value of ^3H radioactivity of sample added with compound or control sample.

SMILES	potency estimated from few doses (CETP [1])	Average CETP activity ± standard deviation (%) (CETP [2])
CCN(CC1CCCC1)c1nc2ccccc2cc1CN(Cc1cc(C(F)(F)F)cc(C(F)(F)F)c1)c1ncccn1 [Comparative Compound 1, reference compound]	20000 nM	30.3 ± 4.2%
CCN(CC1CCCC1)c1ccc(OC)nc1CN(c1ncc(OCC[S+](C)[O-])cn1)C(C)c1cc(C(F)(F)F)cc(C(F)(F)F)c1 (centres unmarked) [Example 2, N-{1-[3,5-bis(trifluoromethyl)phenyl]ethyl}-N-({3-[(cyclopentylmethyl)(ethyl)amino]-6-methoxypyridin-2-yl}methyl)-5-[2-(methylsulfinyl)ethoxy]pyrimidin-2-amine]	150 nM	
CCN(CC1CCCC1)c1ccc(OC)nc1CN(c1ncc(OCCS(C)(=O)=O)cn1)C(C)c1cc(C(F)(F)F)cc(C(F)(F)F)c1 (centres unmarked) [Example 3, N-{1-[3,5-bis(trifluoromethyl)phenyl]ethyl}-N-({3-[(cyclopentylmethyl)(ethyl)amino]-6-methoxypyridin-2-yl}methyl)-5-[2-(methylsulfonyl)ethoxy]pyrimidin-2-amine]	150 nM	
CCN(CC1CCCC1)c1nc2ccc(OC)cc2cc1CN(c1ncc(OCCS(C)(=O)=O)cn1)C(C)c1cc(C(F)(F)F)cc(C(F)(F)F)c1 (centres unmarked) [Example 9, 3-[({1-[3,5-bis(trifluoromethyl)phenyl]ethyl}{5-[2-(methylsulfonyl)ethoxy]pyrimidin-2-yl}amino)methyl]-N-(cyclopentylmethyl)-N-ethyl-6-methoxyquinolin-2-amine]	500 nM	
CCc1ccc(CN(c2ncc(OCCS(C)(=O)=O)cn2)C(C)c2cc(C(F)(F)F)cc(C(F)(F)F)c2)c(N(CC)CC2CCCC2)n1 (centres unmarked) [Example 17, N-{1-[3,5-bis(trifluoromethyl)phenyl]ethyl}-N-({2-[(cyclopentylmethyl)(ethyl)amino]-6-ethylpyridin-3-yl}methyl)-5-[2-(methylsulfonyl)ethoxy]pyrimidin-2-amine]	45 nM	
CCN(CC1CCCC1)c1nc(C)c(C)cc1CN(c1ncc(OCCS(C)(=O)=O)cn1)C(C)c1cc(C(F)(F)F)cc(C(F)(F)F)c1 (centres unmarked) [Example 19, N-{1-[3,5-bis(trifluoromethyl)phenyl]ethyl}-N-({2-[(cyclopentylmethyl)(ethyl)amino]-5,6-dimethylpyridin-3-yl}methyl)-5-[2-(methylsulfonyl)ethoxy]pyrimidin-2-amine]	30 nM	
CCN(CC1CCCC1)c1nc2c(cc1CN(c1ncc(OCCS(C)(=O)=O)cn1)C(C)c1cc(C#N)cc(C(F)(F)F)c1)c(C)nn2C (centres unmarked) [Example 23, 3-{1-[({6-[(cyclopentylmethyl)(ethyl)amino]-1,3-dimethyl-1H-pyrazolo[3,4-b]pyridin-5-yl}methyl){5-[2-(methylsulfonyl)ethoxy]pyrimidin-2-yl}amino]ethyl}-5-(trifluoromethyl)benzonitrile]	150 nM	

Further lines, with some results ahead:

potency estimated from few doses (CETP [1])	SMILES	Average CETP activity ± standard deviation (%) (CETP [2])
35 nM	CCN(CC1CCCC1)c1nc2c(cc1CN(c1ncc(OCCS(C)(=O)=O)cn1)C(C)c1cc(C(F)(F)F)cc(C(F)(F)F)c1)c(C)nn2C (centres unmarked) [Example 5, 5-[({1-[3,5-bis(trifluoromethyl)phenyl]ethyl}{5-[2-(methylsulfonyl)ethoxy]pyrimidin-2-yl}amino)methyl]-N-(cyclopentylmethyl)-N-ethyl-1,3-dimethyl-1H-pyrazolo[3,4-b]pyridin-6-amine]	3.7 ± 3.2%
50 nM	CCN(CC1CCCC1)c1nc2ccccc2cc1CN(c1ncc(OCCS(C)(=O)=O)cn1)C(C)c1cc(C(F)(F)F)cc(C(F)(F)F)c1 (centres unmarked) [Example 7, 3-[({1-[3,5-bis(trifluoromethyl)phenyl]ethyl}{5-[2-(methylsulfonyl)ethoxy]pyrimidin-2-yl}amino)methyl]-N-(cyclopentylmethyl)-N-ethylquinolin-2-amine]	
80 nM	CCN(CC1CCCC1)c1nc2ccc(C(F)(F)F)cc2cc1CN(c1ncc(OCCS(C)(=O)=O)cn1)C(C)c1cc(C(F)(F)F)cc(C(F)(F)F)c1 (centres unmarked) [Example 11, 3-[({1-[3,5-bis(trifluoromethyl)phenyl]ethyl}{5-[2-(methylsulfonyl)ethoxy]pyrimidin-2-yl}amino)methyl]-N-(cyclopentylmethyl)-N-ethyl-6-trifluoromethylquinolin-2-amine]	
80 nM	CCN(CC1CCCC1)c1nc2ccc(C)cc2cc1CN(c1ncc(OCCS(C)(=O)=O)cn1)C(C)c1cc(C(F)(F)F)cc(C(F)(F)F)c1 (centres unmarked) [Example 13, 3-[({1-[3,5-bis(trifluoromethyl)phenyl]ethyl}{5-[2-(methylsulfonyl)ethoxy]pyrimidin-2-yl}amino)methyl]-N-(cyclopentylmethyl)-N-ethyl-6-methylquinolin-2-amine]	
200 nM	CCN(CC1CCCC1)c1nc(C)ccc1CN(c1ncc(OCCS(C)(=O)=O)cn1)C(C)c1cc(C(F)(F)F)cc(C(F)(F)F)c1 (centres unmarked) [Example 15, N-{1-[3,5-bis(trifluoromethyl)phenyl]ethyl}-N-({2-[(cyclopentylmethyl)(ethyl)amino]-6-methylpyridin-3-yl}methyl)-5-[2-(methylsulfonyl)ethoxy]pyrimidin-2-amine]	
